*: point of attachment. Cbz = O=C(OCc1ccccc1)*; CH2F = FC*
Tests used:
[1] = tested on: UT-9 astrocytoma cell line; assay: survival of UT-9 astrocytoma cell line (MTT/DAPI count); assay type: cell-based; details: BCNU alone at doses equivalent to those used for 1789 and UT-12, FIG. 5
Method: (§1) A variety of cells were exposed to BCNU (also known as carmustine) in the presence of a variety of caspase inhibitors. This alkylating agent is frequently employed in the treatment of cancers of the central nervous system, as well as for treatment of certain lymphomas. The growth of tumor cells and normal human brain precursor cells in chemically-defined medium was assayed under various conditions of alkylating agent and/or caspase inhibitor. Cells were exposed to BCNU at varying dosages, depending upon the outcome of characterization of their sensitivity to BCNU. In general, dosages were employed for which it would be possible to recognize protection from the cytotoxic effects of this alkylating agent, as well as to recognize increased anticancer activity depending on the conditions, of for example, the caspase inhibitor and the activity of this compound.
(§2) After 24 hours, cells were pretreated for 1 hour with caspase inhibitors at a concentration of 20 microM, following exposure to BCNU for 1 hour at concentrations that would kill approximately 50% of the tumor cells, as determined by dose-response experiments. In general, the BCNU concentration applied ranged from 5 microg/ml to 20 microg/ml. Exposure periods were based upon the known clearance rate of BCNU in vivo. […] Percentages of cell survival were normalized to controls. All experiments were performed at least as quadruplicates. […]

[2] = tested on: normal astrocytes; assay: BCNU cytotoxicity on normal astrocytes; assay type: cell-based; details: agent alone, FIG. 8
Method: as §1

[3] = tested on: NIH3T3 cells; details: cited from earlier work
[4] = tested on: UT-12 glioblastoma cell line; assay: survival of UT-12 glioblastoma cell line (MTT/DAPI count); assay type: cell-based; details: UT-12 glioma cells; FIG. 6
Method: as §1, §2

[5] = tested on: SW480 colon cancer cells; assay: cisplatin-induced death of SW480 colon cancer cells; assay type: cell-based; details: cisplatin alone, FIG. 10
[6] = target: T1, Caspase-1 (Homo sapiens, UniProt P29466); details: cited from earlier work
T1 sequence (P29466 120-297 limits assumed): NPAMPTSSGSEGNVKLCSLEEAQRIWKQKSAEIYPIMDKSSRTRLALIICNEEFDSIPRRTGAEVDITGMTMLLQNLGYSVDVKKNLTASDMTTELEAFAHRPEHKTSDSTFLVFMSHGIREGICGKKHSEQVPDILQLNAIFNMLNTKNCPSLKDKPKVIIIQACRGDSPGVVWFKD
T1 sequence (P29466 317-404 limits assumed): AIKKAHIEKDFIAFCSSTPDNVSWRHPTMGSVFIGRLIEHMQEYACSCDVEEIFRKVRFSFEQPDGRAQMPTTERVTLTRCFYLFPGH

[7] = tested on: H460 (non-small cell lung cancer); details: H460 cell line; cited from earlier work
[8] = tested on: human liver cells; details: cited from earlier work
[9] = tested on: SW480 (colon adenocarcinoma); details: SW480 cell line; cited from earlier work
[10] = target: T2, caspase-3 (Homo sapiens, UniProt P42574); details: cited from earlier work
T2 sequence (P42574 29-175 limits assumed): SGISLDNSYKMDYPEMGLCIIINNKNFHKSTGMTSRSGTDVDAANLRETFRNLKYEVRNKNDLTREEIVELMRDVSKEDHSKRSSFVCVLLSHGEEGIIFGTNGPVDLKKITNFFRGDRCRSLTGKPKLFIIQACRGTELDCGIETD
T2 sequence (P42574 176-277 limits assumed): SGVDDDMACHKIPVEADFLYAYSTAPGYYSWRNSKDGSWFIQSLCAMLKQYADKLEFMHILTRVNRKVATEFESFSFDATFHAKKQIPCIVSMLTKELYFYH

O=NN(CCCl)C(=O)NCCCl [BCNU, carmustine]
reduction in cell number [1]: causes only a minor reduction in cell number | killing of astrocytes [2]: Astrocytes were killed by BCNU

COc1ccc(O)c(C(C)(C)C)c1 [BHA, butylated hydroxyanisole]
protection from cytotoxicity of tumor necrosis factor plus caspase-8 inhibition ([3]; pretreatment, Luschen et al.): protected NIH3T3 cells from cytotoxicity induced by the combination of tumor necrosis factor and caspase-8 inhibition

O=C1O[C@H]([C@@H](O)CO)C(O)=C1O [Vitamin C, ascoribic acid]
cell killing by the full combination (caspase 9 and pan-caspase inhibition, BCNU, Vitamin C) [4]: kills all of the UT-12 glioma cells

N.N.[Cl][Pt][Cl] [cisplatin, Cisplatin]
cell death / reduction in number of cells [5]: cisplatin-induced death

Ac-YVAD-CHO
inhibition of Caspase-1 [6]: strong inhibitor of Caspase-1

Cbz-LEHD-CH2F
protection from TRAIL induced death [7]: did not protect | protection from TRAIL-associated toxicity [8]: effectively protects liver cells from TRAIL-associated toxicity | protection from TRAIL induced death [9]: did not protect

TRAIL: tumor necrosis factor-related apoptosis-inducing ligand
induction of cell death [8]: induces cell death in human liver cells by a caspase-9 dependent mechanism

c-DEVD-CHO
inhibition of caspase-3 [10]: inhibits preferentially (but not specifically) caspase-3

zVAD.fmk
sensitization to the action of TNF ([3]; Luschen et al, 2000): Sensitization to the action of TNF

From US20060205771A1, “Caspase inhibitors as anticancer agents” (priority 2002, published 2006)
